A word on the inhibition: it is the share of the control response that was lost under treatment.

The text below walks through data of patent US8937091B2 (Japan Science and Technology Agency, priority 2009, dated 2015).

For experiment [1], the system named is SOCE (store operated calcium entry) in CHO cells. As to the kind of experiment: Assay of SOCE (store operated calcium entry)-inhibiting action. Type of experiment: cell-based, Chinese hamster. As to conditions: CHO cells, thapsigargin; for inhibition at 10 µM / inhibition at 30 µM / inhibition at 100 µM: Cricetulus griseus, CHO, read-out: SOCE level (percentage of inhibition). The procedure, abridged:
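CHO cells in calcium-free BSS received compound, then 1 μM thapsigargin 2 min later to deplete stores; after 9 min, 2 mM calcium chloride (final) added. Percent inhibition of the rise in intracellular calcium determined at various compound concentrations.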

The test system of experiment [2] is IICR (IP3 induced calcium release) in CHO cells. As to the kind of experiment: Assay of IICR (IP3 induced calcium release)-inhibiting action. The following applies: CHO cells, 10 μM ATP; for inhibition at 10 µM / inhibition at 30 µM / inhibition at 100 µM: Cricetulus griseus, CHO, read-out: IICR level (percentage of inhibition). Type of experiment: cell-based, Chinese hamster. In outline:
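Inhibition (%) of the intracellular calcium increase triggered by 10 μM ATP, measured in CHO cells in BSS with calcium. Compound given 1 min after the buffer exchange and 2 min before ATP; values reported per compound concentration.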

On to `CC(C)N(CCC(=O)c1ccc(Br)s1)Cc1ccccc1` [Example 292, 2-(N-isopropylbenzyl)aminoethyl-5-bromo-2-thienylketone], for which the inhibition at 10 µM in experiment [1] (test compound 10 μmol) was 0%; in experiment [2] (test compound 10 μmol) it was 50%. In addition, the inhibition at 30 µM in experiment [1] (test compound 30 μmol) worked out at 20%; in experiment [2] (test compound 30 μmol), 80%. For the same compound, the inhibition at 100 µM in experiment [1] (test compound 100 μmol) came out at 40%; in experiment [2] (test compound 100 μmol), 90%.

Consider `CCc1nccnc1C(=O)CCN(CCO)C(C)C` [Example 252, 2-(N-isopropyl-2-hydroxyethyl)aminoethyl-3-ethyl-2-pyrazylketone], for which the “SOCE level (percentage of inhibition)” value in experiment [1] (test compound 10 μmol), in experiment [1] (test compound 30 μmol) and in experiment [1] (test compound 100 μmol) was 0% each time. In addition, the entries for the “IICR level (percentage of inhibition)” value in experiment [2] (test compound 10 μmol), in experiment [2] (test compound 30 μmol) and in experiment [2] (test compound 100 μmol) were 0%, 0% and 80%, respectively.

Regarding `CCCCN(CCO)CCC(=O)c1ccncc1` [Example 51, 2-(N-hydroxyethylbutyl)aminoethyl-4-pyridylketone], the inhibition at 10 µM in experiment [1] (test compound 10 μmol) and in experiment [2] (test compound 10 μmol) was 0% throughout. In addition, the results for the inhibition at 30 µM in experiment [1] (test compound 30 μmol) and in experiment [2] (test compound 30 μmol) were 0% and 20%, respectively. The values for the inhibition at 100 µM in experiment [1] (test compound 100 μmol) and in experiment [2] (test compound 100 μmol) were 0% and 100%, respectively.

On to `CC(C)N(CCO)CCC(=O)c1ccc(Cl)s1` [Example 267, 2-(N-2-hydroxyethylisopropyl)aminoethyl-5-chloro-2-thiophenylketone], for which the inhibition at 10 µM in experiment [1] (test compound 10 μmol) and in experiment [2] (test compound 10 μmol) was 0% each time. Also, the inhibition at 30 µM in experiment [1] (test compound 30 μmol) and in experiment [2] (test compound 30 μmol) was 0% in each case. For the same compound, the inhibition at 100 µM in experiment [1] (test compound 100 μmol) came out at 0%; in experiment [2] (test compound 100 μmol), 70%.

With `O=C(CCN1CCCCC1)c1ccc(Br)s1` [Example 348, 2-piperidinoethyl-5-bromo-2-thienylketone], the figures for the inhibition at 10 µM in experiment [1] (test compound 10 μmol) and in experiment [2] (test compound 10 μmol) were 0% and 20%, respectively. Also, the inhibition at 30 µM in experiment [1] (test compound 30 μmol) and in experiment [2] (test compound 30 μmol) was 0% in each case. Besides, the inhibition at 100 µM in experiment [1] (test compound 100 μmol) came out at 16%; in experiment [2] (test compound 100 μmol), 20%.

As for `CC(C)N(CCC(=O)c1ccc(Cc2ccccc2)cc1)Cc1ccccc1` [Example 103, 2-(N-isopropylbenzyl)aminoethyl-4-benzylphenylketone], the “SOCE level (percentage of inhibition)” value stood at 10% in experiment [1] (test compound 10 μmol), 50% in experiment [1] (test compound 30 μmol) and 60% in experiment [1] (test compound 100 μmol). Moreover, the figures for the “IICR level (percentage of inhibition)” value in experiment [2] (test compound 10 μmol), in experiment [2] (test compound 30 μmol) and in experiment [2] (test compound 100 μmol) were 80%, 80% and 100%, respectively.

Take `O=C(CCNCc1ccccc1)c1ccncc1` [Example 271, 2-(N-benzyl)aminoethyl-4-pyridylketone]: the inhibition at 30 µM in experiment [1] (test compound 30 μmol) and in experiment [2] (test compound 30 μmol) was 0% in each case. In addition, the inhibition at 100 µM in experiment [1] (test compound 100 μmol) turned out to be 10%; in experiment [2] (test compound 100 μmol), 40%. Further, in experiment [2] (test compound 10 μmol), the inhibition at 10 µM was determined as 10%.

For `O=C(CCN1CCCCC1)c1ccc2c(Cl)cccc2c1` [Example 88, 2-piperidinoethyl-5-chloro-2-naphthylketone], the inhibition at 10 µM in experiment [1] (test compound 10 μmol) was determined as 0%; in experiment [2] (test compound 10 μmol) it was 10%. The figures for the inhibition at 30 µM in experiment [1] (test compound 30 μmol) and in experiment [2] (test compound 30 μmol) were 0% and 10%, respectively. For the same compound, the inhibition at 100 µM is 20% in experiment [1] (test compound 100 μmol) and 100% in experiment [2] (test compound 100 μmol).

In the case of `N[C@@H](CSSC[C@@H](C(=O)O)N(CCC(=O)c1ccc(Cl)s1)CCC(=O)c1ccc(Cl)s1)C(=O)O` [Example 387, N,N-bis(2-(5-chloro-2-thiophenoyl)ethyl)cystine], the inhibition at 10 µM in experiment [1] (test compound 10 μmol) came to 20%; in experiment [2] (test compound 10 μmol), 0%. Moreover, the inhibition at 30 µM was 40% in experiment [1] (test compound 30 μmol) and 0% in experiment [2] (test compound 30 μmol). Further, the results for the inhibition at 100 µM in experiment [1] (test compound 100 μmol) and in experiment [2] (test compound 100 μmol) were 50% and 70%, respectively.

For `CC(C)N(CCC(=O)c1ccc[nH]1)Cc1ccccc1` [Example 110, 2-(N-isopropylbenzyl)aminoethyl-2-pyrroleketone], the inhibition at 10 µM in experiment [1] (test compound 10 μmol) was determined as 0%; in experiment [2] (test compound 10 μmol) it was 20%. The values for the inhibition at 30 µM in experiment [1] (test compound 30 μmol) and in experiment [2] (test compound 30 μmol) were 0% and 40%, respectively. Further, the inhibition at 100 µM amounted to 0% in experiment [1] (test compound 100 μmol) and 100% in experiment [2] (test compound 100 μmol).

For the compound `CC(C)(C)N(CCC(=O)c1ncccc1Br)Cc1ccccc1` [Example 408, 2-(N-t-butyl-N-benzyl)aminoethyl-3-bromo-2-pyridylketone], the inhibition at 10 µM was found to be 20% in experiment [1] (test compound 10 μmol) and 76% in experiment [2] (test compound 10 μmol). For the same compound, the inhibition at 30 µM is 40% in experiment [1] (test compound 30 μmol) and 83% in experiment [2] (test compound 30 μmol). For the same compound, the inhibition at 100 µM in experiment [1] (test compound 100 μmol) amounted to 50%; in experiment [2] (test compound 100 μmol), 77%.

In the case of `CCCCN(CCO)CCC(=O)c1ccc(Br)s1` [Example 293, 2-(N-2-hydroxyethylbutyl)aminoethyl-5-bromo-2-thienylketone], the inhibition at 10 µM in experiment [1] (test compound 10 μmol) was found to be 0%; in experiment [2] (test compound 10 μmol), 80%. Also, the inhibition at 30 µM in experiment [1] (test compound 30 μmol) was determined as 0%; in experiment [2] (test compound 30 μmol) it was 50%. Further, the inhibition at 100 µM in experiment [1] (test compound 100 μmol) worked out at 10%; in experiment [2] (test compound 100 μmol), 90%.

Regarding `CCN(CC)CCC(=O)c1ccc(Oc2ccccc2)cc1` [Example 116, 2-(N-diethyl)aminoethyl-4-phenoxyphenylketone], the inhibition at 10 µM in experiment [1] (test compound 10 μmol) was found to be 0%; in experiment [2] (test compound 10 μmol), 20%. Moreover, the inhibition at 30 µM in experiment [1] (test compound 30 μmol) was 0%; in experiment [2] (test compound 30 μmol), 20%. Further, the inhibition at 100 µM worked out at 20% in experiment [1] (test compound 100 μmol) and 70% in experiment [2] (test compound 100 μmol).

As for `CC(C)N(CCO)CCC(=O)c1cccn1C` [Example 169, 2-(N-isopropyl-2-hydroxyethyl)aminoethyl-2-(N-methylpyrrolyl)ketone], the inhibition at 10 µM in experiment [1] (test compound 10 μmol) and in experiment [2] (test compound 10 μmol) was 0% throughout. Besides, the inhibition at 30 µM in experiment [1] (test compound 30 μmol) and in experiment [2] (test compound 30 μmol) was 0% in each case. In addition, the inhibition at 100 µM in experiment [1] (test compound 100 μmol) and in experiment [2] (test compound 100 μmol) was 0% each time.

As to `CN(CCC(=O)c1ccncc1)Cc1ccccc1` [Example 31, 2-(N-methylbenzyl)aminoethyl-4-pyridylketone], the results for the inhibition at 10 µM in experiment [1] (test compound 10 μmol) and in experiment [2] (test compound 10 μmol) were 0% and 40%, respectively. Moreover, the inhibition at 30 µM was 0% in experiment [1] (test compound 30 μmol) and 60% in experiment [2] (test compound 30 μmol). Besides, the inhibition at 100 µM in experiment [1] (test compound 100 μmol) is 0%; in experiment [2] (test compound 100 μmol), 80%.

Take `CC(C)N(CCO)CCC(=O)c1ccc(Br)s1` [Example 329, 2-(N-hydroxyethylisopropyl)aminoethyl-5-bromo-2-thienylketone]: the figures for the inhibition at 10 µM in experiment [1] (test compound 10 μmol) and in experiment [2] (test compound 10 μmol) were 20% and 0%, respectively. For the same compound, the inhibition at 30 µM in experiment [1] (test compound 30 μmol) is 20%; in experiment [2] (test compound 30 μmol), 10%. Further, the inhibition at 100 µM in experiment [1] (test compound 100 μmol) was determined as 10%; in experiment [2] (test compound 100 μmol) it was 50%.

As to `CC(C)N(CCC(=O)c1ccsc1)Cc1ccccc1` [Example 222, 2-(N-isopropylbenzyl)aminoethyl-3-thiophenylketone], the inhibition at 10 µM in experiment [1] (test compound 10 μmol) and in experiment [2] (test compound 10 μmol) was 0% throughout. Besides, the results for the inhibition at 30 µM in experiment [1] (test compound 30 μmol) and in experiment [2] (test compound 30 μmol) were 0% and 30%, respectively. Moreover, the inhibition at 100 µM in experiment [1] (test compound 100 μmol) came out at 10%; in experiment [2] (test compound 100 μmol) it was 80%.
